Assays:
Experiment in all cases: Transporter inhibition
Format in all cases: in vitro ADME
OATP1B1 = target: T1, OATP1B1 (Homo sapiens, UniProt Q9Y6L6); details: 0.5 and 5 μM tested
T1 construct: expressed in transfected cells
T1 sequence (Q9Y6L6 1-691): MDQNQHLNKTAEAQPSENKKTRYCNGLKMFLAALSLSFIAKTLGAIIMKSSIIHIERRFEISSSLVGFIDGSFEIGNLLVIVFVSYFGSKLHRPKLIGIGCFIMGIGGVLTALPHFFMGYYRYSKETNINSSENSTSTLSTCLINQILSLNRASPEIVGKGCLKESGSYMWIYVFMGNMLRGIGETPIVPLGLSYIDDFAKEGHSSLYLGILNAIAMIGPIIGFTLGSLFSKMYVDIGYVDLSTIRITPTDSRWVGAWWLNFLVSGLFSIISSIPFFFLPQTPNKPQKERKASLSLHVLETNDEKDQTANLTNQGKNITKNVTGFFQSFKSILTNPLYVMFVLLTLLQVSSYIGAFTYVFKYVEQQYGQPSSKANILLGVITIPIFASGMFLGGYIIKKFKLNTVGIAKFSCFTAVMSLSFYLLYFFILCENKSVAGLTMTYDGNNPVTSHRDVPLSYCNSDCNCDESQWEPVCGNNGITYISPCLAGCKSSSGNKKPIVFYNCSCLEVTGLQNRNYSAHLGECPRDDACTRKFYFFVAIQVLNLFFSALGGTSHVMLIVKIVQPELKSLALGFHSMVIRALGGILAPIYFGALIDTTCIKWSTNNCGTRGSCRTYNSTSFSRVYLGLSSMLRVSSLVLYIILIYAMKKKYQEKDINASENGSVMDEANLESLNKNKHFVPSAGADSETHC
Protocol: (§1) Human transporter protein interactions with opelconazole as a potential substrate and/or inhibitor were assessed for the following key carrier transporters: organic anion transporters, OAT1 and OAT3; organic cation transporters, OCT1 and OCT2; OATP1B1 and OATP1B3; multidrug and toxin extrusion, MATE-1 and MATE2-K; key ATP-binding cassette (ABC) transporters including P-gp, breast cancer resistance protein (BCRP) and bile salt export pump (BSEP). Two concentrations of opelconazole, 0.5 and 5 μM, were tested using MDCKII cells, human embryonic kidney 293 cells and BSEP-transfected sf9 membrane vesicles and then analysed by LC-tandem MS to determine transporter inhibition and whether opelconazole was a transporter substrate. The viability of experimental test systems was confirmed with controls and known probe substrates and probe inhibitors.

BSEP = target: T2, BSEP (Homo sapiens, UniProt O95342); details: 0.5 and 5 μM tested
T2 construct: expressed in transfected cells; host or cells: Sf9 membrane vesicles
T2 sequence (O95342 whole entry): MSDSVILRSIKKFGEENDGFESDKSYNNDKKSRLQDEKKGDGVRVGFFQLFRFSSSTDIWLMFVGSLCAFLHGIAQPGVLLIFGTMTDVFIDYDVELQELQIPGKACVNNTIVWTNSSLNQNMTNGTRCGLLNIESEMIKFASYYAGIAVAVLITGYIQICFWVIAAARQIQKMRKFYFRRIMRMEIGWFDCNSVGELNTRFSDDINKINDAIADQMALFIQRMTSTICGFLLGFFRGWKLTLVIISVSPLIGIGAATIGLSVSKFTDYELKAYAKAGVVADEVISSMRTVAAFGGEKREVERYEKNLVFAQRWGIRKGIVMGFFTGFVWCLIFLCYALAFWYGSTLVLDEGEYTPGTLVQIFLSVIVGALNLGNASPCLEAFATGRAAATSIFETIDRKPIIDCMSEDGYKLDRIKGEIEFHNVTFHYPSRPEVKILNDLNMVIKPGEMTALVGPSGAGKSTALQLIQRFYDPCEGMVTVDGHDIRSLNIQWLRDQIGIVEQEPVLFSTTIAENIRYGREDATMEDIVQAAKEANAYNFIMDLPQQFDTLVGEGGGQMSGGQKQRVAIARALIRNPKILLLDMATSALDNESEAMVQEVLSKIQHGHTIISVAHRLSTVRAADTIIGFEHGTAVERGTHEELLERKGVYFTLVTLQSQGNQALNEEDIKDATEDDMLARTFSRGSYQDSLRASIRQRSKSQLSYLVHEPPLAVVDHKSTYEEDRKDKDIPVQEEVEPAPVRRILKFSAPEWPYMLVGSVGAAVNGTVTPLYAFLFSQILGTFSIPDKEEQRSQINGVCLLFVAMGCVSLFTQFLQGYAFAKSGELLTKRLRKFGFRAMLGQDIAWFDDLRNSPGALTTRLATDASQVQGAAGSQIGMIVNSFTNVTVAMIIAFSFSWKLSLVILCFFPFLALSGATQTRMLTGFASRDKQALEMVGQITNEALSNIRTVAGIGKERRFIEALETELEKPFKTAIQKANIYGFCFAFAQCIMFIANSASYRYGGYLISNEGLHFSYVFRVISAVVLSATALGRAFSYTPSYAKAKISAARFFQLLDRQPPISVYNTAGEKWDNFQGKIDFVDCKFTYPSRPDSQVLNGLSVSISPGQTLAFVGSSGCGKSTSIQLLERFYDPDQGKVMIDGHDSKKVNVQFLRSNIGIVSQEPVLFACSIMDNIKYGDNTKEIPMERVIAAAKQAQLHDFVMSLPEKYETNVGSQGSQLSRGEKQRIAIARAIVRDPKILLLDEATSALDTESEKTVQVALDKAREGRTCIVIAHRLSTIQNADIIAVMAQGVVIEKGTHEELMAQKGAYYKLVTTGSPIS
Protocol: as §1

OCT1 = target: T3, OCT1 (Homo sapiens, UniProt O15245); details: 0.5 and 5 μM tested
T3 construct: expressed in transfected cells
T3 sequence (O15245 1-554): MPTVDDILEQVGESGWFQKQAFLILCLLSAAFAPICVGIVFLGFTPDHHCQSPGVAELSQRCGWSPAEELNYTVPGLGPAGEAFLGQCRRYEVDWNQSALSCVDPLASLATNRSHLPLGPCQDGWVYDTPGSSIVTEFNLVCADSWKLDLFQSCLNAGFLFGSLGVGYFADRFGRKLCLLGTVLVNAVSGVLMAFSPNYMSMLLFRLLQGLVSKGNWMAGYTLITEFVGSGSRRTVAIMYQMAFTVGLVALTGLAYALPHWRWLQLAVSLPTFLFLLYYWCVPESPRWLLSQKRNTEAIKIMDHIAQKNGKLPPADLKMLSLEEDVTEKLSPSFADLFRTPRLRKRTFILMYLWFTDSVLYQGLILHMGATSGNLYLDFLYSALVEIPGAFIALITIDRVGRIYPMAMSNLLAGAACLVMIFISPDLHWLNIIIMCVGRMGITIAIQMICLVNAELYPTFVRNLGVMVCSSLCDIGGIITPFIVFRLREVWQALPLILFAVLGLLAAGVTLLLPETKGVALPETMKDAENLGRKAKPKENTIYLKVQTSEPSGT
Protocol: as §1

OCT2 = target: T4, OCT2 (Homo sapiens, UniProt O15244)
T4 construct: expressed in transfected cells
T4 sequence (O15244 1-555): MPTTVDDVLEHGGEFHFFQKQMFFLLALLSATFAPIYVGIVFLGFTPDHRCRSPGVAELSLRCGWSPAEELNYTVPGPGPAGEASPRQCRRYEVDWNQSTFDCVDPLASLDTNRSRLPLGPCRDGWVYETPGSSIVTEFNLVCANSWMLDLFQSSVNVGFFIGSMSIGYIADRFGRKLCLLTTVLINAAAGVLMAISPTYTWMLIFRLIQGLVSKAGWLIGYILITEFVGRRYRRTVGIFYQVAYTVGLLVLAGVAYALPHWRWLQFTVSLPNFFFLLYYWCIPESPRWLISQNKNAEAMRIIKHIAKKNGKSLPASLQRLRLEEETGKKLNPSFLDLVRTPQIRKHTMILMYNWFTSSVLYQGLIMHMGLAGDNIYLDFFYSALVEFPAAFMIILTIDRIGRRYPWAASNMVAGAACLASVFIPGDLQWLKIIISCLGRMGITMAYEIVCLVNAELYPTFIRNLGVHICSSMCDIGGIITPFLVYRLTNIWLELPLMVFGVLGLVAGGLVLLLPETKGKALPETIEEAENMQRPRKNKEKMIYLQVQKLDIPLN
Protocol: as §1

OATP1B3 = target: T5, OATP1B3 (Homo sapiens, UniProt Q9NPD5); details: 0.5 and 5 μM tested
T5 construct: expressed in transfected cells
T5 sequence (Q9NPD5 1-702): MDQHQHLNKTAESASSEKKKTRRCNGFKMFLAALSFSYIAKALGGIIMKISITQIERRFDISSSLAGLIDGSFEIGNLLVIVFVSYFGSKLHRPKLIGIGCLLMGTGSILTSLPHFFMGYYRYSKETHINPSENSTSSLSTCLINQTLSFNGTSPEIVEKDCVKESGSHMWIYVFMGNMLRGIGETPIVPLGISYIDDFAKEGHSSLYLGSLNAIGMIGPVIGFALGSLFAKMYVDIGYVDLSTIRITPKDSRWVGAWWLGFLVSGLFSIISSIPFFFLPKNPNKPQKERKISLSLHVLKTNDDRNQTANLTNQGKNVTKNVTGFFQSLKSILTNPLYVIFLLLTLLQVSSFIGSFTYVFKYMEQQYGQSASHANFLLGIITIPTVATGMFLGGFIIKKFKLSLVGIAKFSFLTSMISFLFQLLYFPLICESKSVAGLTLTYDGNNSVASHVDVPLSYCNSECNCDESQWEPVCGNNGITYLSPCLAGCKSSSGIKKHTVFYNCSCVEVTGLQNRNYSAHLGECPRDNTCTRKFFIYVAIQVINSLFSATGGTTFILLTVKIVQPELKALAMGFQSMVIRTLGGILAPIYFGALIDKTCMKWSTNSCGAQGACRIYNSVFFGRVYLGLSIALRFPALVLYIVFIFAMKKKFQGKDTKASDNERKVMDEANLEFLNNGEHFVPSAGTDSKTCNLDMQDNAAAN
Protocol: as §1

Cc1cc(N2CCN(c3ccc(C(=O)Nc4ccc(F)cc4)cc3)CC2)ccc1OC[C@@H]1CO[C@@](Cn2cncn2)(c2ccc(F)cc2F)C1 [opelconazole]
inhibitory interaction with OATP1B1 (OATP1B1): negligible inhibitory interactions
inhibitory interaction with BSEP (BSEP): negligible inhibitory interactions
inhibitory interaction with OCT1 (OCT1): negligible inhibitory interactions
inhibitory interaction with OCT2 (OCT2; 0.5 μM opelconazole): negligible inhibitory interactions
inhibition of OCT2 relative to solvent control (OCT2; 5 μM opelconazole): 39%
inhibitory interaction with OATP1B3 (OATP1B3): negligible inhibitory interactions

Reference: publication PMC12670164, “In vitro and clinical data demonstrate negligible risk of drug–drug interactions with opelconazole, a novel inhaled antifungal agent” (Journal of Antimicrobial Chemotherapy, 2025)
